Columns and labels:
Type in all cases: functional
[1] = tested on: NCI-H522; experiment: Antiproliferative activity against human NCI-H522 cells assessed as cell growth at 10^-5 M after 48 hrs by sulforhodamine B assay; settings: NCI-H522, 48 h, read-out: Activity
[2] = Antiproliferative activity against human COLO205 cells assessed as cell growth at 10^-5 M after 48 hrs by sulforhodamine B assay; settings: COLO 205, 48 h, read-out: Activity
[3] = tested on: MDA-MB-468; experiment: Antiproliferative activity against human MDA-MB-468 cells assessed as cell growth at 10^-5 M after 48 hrs by sulforhodamine B assay; settings: MDA-MB-468, 48 h, read-out: Activity
[4] = Antiproliferative activity against human SNB75 cells assessed as cell growth at 10^-5 M after 48 hrs by sulforhodamine B assay; settings: SNB-75, 48 h, read-out: Activity
[5] = tested on: U-251; experiment: Antiproliferative activity against human U251 cells assessed as cell growth at 10^-5 M after 48 hrs by sulforhodamine B assay; settings: U-251, 48 h, read-out: Activity
[6] = Antiproliferative activity against human SF295 cells assessed as cell growth at 10^-5 M after 48 hrs by sulforhodamine B assay; settings: SF-295, 48 h, read-out: Activity
[7] = Antiproliferative activity against human MOLT4 cells assessed as cell growth at 10^-5 M after 48 hrs by sulforhodamine B assay; settings: MOLT-4, 48 h, read-out: Activity
[8] = tested on: NCI-H226; experiment: Antiproliferative activity against human NCI-H226 cells assessed as cell growth at 10^-5 M after 48 hrs by sulforhodamine B assay; settings: NCI-H226, 48 h, read-out: Activity
[9] = Antiproliferative activity against human SF539 cells assessed as cell growth at 10^-5 M after 48 hrs by sulforhodamine B assay; settings: SF-539, 48 h, read-out: Activity
[10] = Antiproliferative activity against human UO31 cells assessed as cell growth at 10^-5 M after 48 hrs by sulforhodamine B assay; settings: UO-31, 48 h, read-out: Activity
[11] = tested on: EKVX; experiment: Antiproliferative activity against human EKVX cells assessed as cell growth at 10^-5 M after 48 hrs by sulforhodamine B assay; settings: read-out: Activity
[12] = Antiproliferative activity against human SF268 cells assessed as cell growth at 10^-5 M after 48 hrs by sulforhodamine B assay; settings: SF-268, 48 h, read-out: Activity
[13] = Antiproliferative activity against human RPMI8226 cells assessed as cell growth at 10^-5 M after 48 hrs by sulforhodamine B assay; settings: RPMI-8226, 48 h, read-out: Activity
[14] = Antiproliferative activity against human DU145 cells assessed as cell growth at 10^-5 M after 48 hrs by sulforhodamine B assay; settings: DU-145, 48 h, read-out: Activity
[15] = Cytotoxicity against human SKBR3 cells assessed as growth inhibition at 10 uM after 2 days by MTT assay; settings: SK-BR-3, 48 h, read-out: GI
[16] = tested on: M14; experiment: Antiproliferative activity against human M14 cells assessed as cell growth at 10^-5 M after 48 hrs by sulforhodamine B assay; settings: M14, 48 h, read-out: Activity
[17] = Antiproliferative activity against human SNB19 cells assessed as cell growth at 10^-5 M after 48 hrs by sulforhodamine B assay; settings: SNB-19, 48 h, read-out: Activity
[18] = Antiproliferative activity against human HCT116 cells assessed as cell growth at 10^-5 M after 48 hrs by sulforhodamine B assay; settings: HCT-116, 48 h, read-out: Activity
[19] = tested on: SN12C; experiment: Antiproliferative activity against human SN12C cells assessed as cell growth at 10^-5 M after 48 hrs by sulforhodamine B assay; settings: read-out: Activity
[20] = Antiproliferative activity against human NCI-ADR-RES cells assessed as cell growth at 10^-5 M after 48 hrs by sulforhodamine B assay; settings: read-out: Activity
[21] = Antiproliferative activity against human SKOV3 cells assessed as cell growth at 10^-5 M after 48 hrs by sulforhodamine B assay; settings: SK-OV-3, 48 h, read-out: Activity
[22] = tested on: NCI-H23; experiment: Antiproliferative activity against human NCI-H23 cells assessed as cell growth at 10^-5 M after 48 hrs by sulforhodamine B assay; settings: NCI-H23, 48 h, read-out: Activity
[23] = Antiproliferative activity against human BT549 cells assessed as cell growth at 10^-5 M after 48 hrs by sulforhodamine B assay; settings: BT-549, 48 h, read-out: Activity
[24] = tested on: NCI-H322M; experiment: Antiproliferative activity against human NCI-H322M cells assessed as cell growth at 10^-5 M after 48 hrs by sulforhodamine B assay; settings: read-out: Activity
[25] = Antiproliferative activity against human OVCAR4 cells assessed as cell growth at 10^-5 M after 48 hrs by sulforhodamine B assay; settings: OVCAR-4, 48 h, read-out: Activity
[26] = Antiproliferative activity against human Hs 578T cells assessed as cell growth at 10^-5 M after 48 hrs by sulforhodamine B assay; settings: read-out: Activity
[27] = Antiproliferative activity against human SW620 cells assessed as cell growth at 10^-5 M after 48 hrs by sulforhodamine B assay; settings: SW-620, 48 h, read-out: Activity
[28] = Antiproliferative activity against human HCT15 cells assessed as cell growth at 10^-5 M after 48 hrs by sulforhodamine B assay; settings: HCT-15, 48 h, read-out: Activity
[29] = Cytotoxicity against human HCT116 cells assessed as growth inhibition at 100 uM after 2 days by MTT assay; settings: HCT-116, 48 h, read-out: GI
[30] = tested on: Malme-3M; experiment: Antiproliferative activity against human MALME-3M cells assessed as cell growth at 10^-5 M after 48 hrs by sulforhodamine B assay; settings: read-out: Activity
[31] = Antiproliferative activity against human HOP62 cells assessed as cell growth at 10^-5 M after 48 hrs by sulforhodamine B assay; settings: HOP-62, 48 h, read-out: Activity
[32] = tested on: K562; experiment: Antiproliferative activity against human K562 cells assessed as cell growth at 10^-5 M after 48 hrs by sulforhodamine B assay; settings: K562, 48 h, read-out: Activity
[33] = Cytotoxicity against human SKBR3 cells assessed as growth inhibition at 100 uM after 2 days by MTT assay; settings: SK-BR-3, 48 h, read-out: GI
[34] = Cytotoxicity against human HCT116 cells assessed as growth inhibition at 10 uM after 2 days by MTT assay; settings: HCT-116, 48 h, read-out: GI
[35] = Antiproliferative activity against human PC3 cells assessed as cell growth at 10^-5 M after 48 hrs by sulforhodamine B assay; settings: PC-3, 48 h, read-out: Activity
[36] = tested on: SK-MEL-2; experiment: Antiproliferative activity against human SK-MEL-2 cells assessed as cell growth at 10^-5 M after 48 hrs by sulforhodamine B assay; settings: SK-MEL-2, 48 h, read-out: Activity
[37] = tested on: ACHN; experiment: Antiproliferative activity against human ACHN cells assessed as cell growth at 10^-5 M after 48 hrs by sulforhodamine B assay; settings: read-out: Activity

Q: Which results are given for `CNC(=O)c1cc(Oc2ccc3nc(NC(=O)Nc4ccc(Cl)cc4)sc3c2)ccn1`?
A: growth at 10 µM [1]: 78%; growth at 10 µM [2]: 79.4%; growth at 10 µM [3]: 55.1%; growth at 10 µM [4]: 50.6%; growth at 10 µM [5]: 37.3%; growth at 10 µM [6]: 66.3%; growth at 10 µM [7]: 85.4%; growth at 10 µM [8]: 67.9%; growth at 10 µM [9]: 83.5%; growth at 10 µM [10]: 62.5%; growth at 10 µM [11]: 53.8%; growth at 10 µM [12]: 56.2%; growth at 10 µM [13]: 81.7%; growth at 10 µM [14]: 53.2%; inhibition of growth at 10 µM [15]: 50.8%; growth at 10 µM [16]: 63%; growth at 10 µM [17]: 59.3%; growth at 10 µM [18]: 47.3%; growth at 10 µM [19]: 62.4%; growth at 10 µM [20]: 83.6%; growth at 10 µM [21]: 82%; growth at 10 µM [22]: 69%; growth at 10 µM [23]: 102%; growth at 10 µM [24]: 66.8%; growth at 10 µM [25]: 13%; growth at 10 µM [26]: 30.1%; growth at 10 µM [27]: 101%; growth at 10 µM [28]: 84.8%; inhibition of growth at 100 µM [29]: 85.2%; growth at 10 µM [30]: 17.7%; growth at 10 µM [31]: 6.54%; growth at 10 µM [32]: 65.6%; inhibition of growth at 100 µM [33]: 77.4%; inhibition of growth at 10 µM [34]: 57.4%; growth at 10 µM [35]: 66%; growth at 10 µM [36]: 81.1%; growth at 10 µM [37]: 64.9%
